Experimental data reported in ChEMBL document CHEMBL5321192, “Synthesis and screening of novel 4-N-heterocyclic-2-aryl-6,7,8-trimethoxyquinazolines as antiproliferative and tubulin polymerization inhibitors” (Bioorg Med Chem, 2022).
Activity calls are given as the source filed them. No cut-off for these calls is given here.

Assays:
Cell membrane = test: Induction of mitochondrial membrane potential depolarization in human MCF7 cells at 10 uM incubated for 48 hrs by JC-1 staining based microplate reader assay; type: subcellular
MCF7 [1] = test: Induction of cell cycle arrest in human MCF7 cells assessed as accumulation of cells at G1/G0 phase at 10 uM incubated for 48 hrs by propidium iodide staining based flow cytometer analysis (reference value: 53.8 %); type: functional
MCF7 [2] = test: Induction of apoptosis in human MCF7 cells assessed as early apoptotic cells at 10 uM incubated for 48 hrs by Annexin V-FITC/propidium iodide staining based flow cytometric analysis (reference value: 2.4 %); type: functional
MCF7 [3] = test: Induction of apoptosis in human MCF7 cells assessed as viable cells at 10 uM incubated for 48 hrs by Annexin V-FITC/propidium iodide staining based flow cytometric analysis; type: functional; details: read-out: Activity
MCF7 [4] = test: Induction of apoptosis in human MCF7 cells assessed as late apoptotic cells at 10 uM incubated for 48 hrs by Annexin V-FITC/propidium iodide staining based flow cytometric analysis (reference value: 3.4 %); type: functional
MCF7 [5] = test: Antiproliferative activity against human MCF7 cells assessed as cell growth inhibition incubated for 48 hrs by MTT assay; type: functional, cell-based; details: MCF7, 48 h
MCF7 [6] = test: Induction of cell cycle arrest in human MCF7 cells assessed as accumulation of cells at S phase at 10 uM incubated for 48 hrs by propidium iodide staining based flow cytometer analysis (reference value: 14.6 %); type: functional
HT-29 = test: Antiproliferative activity against human HT-29 cells assessed as cell growth inhibition incubated for 48 hrs by MTT assay; type: functional, cell-based; details: HT-29, 48 h
MCF7 [7] = test: Induction of apoptosis in human MCF7 cells assessed as necrotic cells at 10 uM incubated for 48 hrs by Annexin V-FITC/propidium iodide staining based flow cytometric analysis (reference value: 1.3 %); type: functional
[8] = Cytotoxicity against human HEK293T cells assessed as cell growth inhibition incubated for 48 hrs by MTT assay; type: toxicity, cell-based, HEK-293T
HeLa = test: Antiproliferative activity against human HeLa cells assessed as cell growth inhibition incubated for 48 hrs by MTT assay; type: functional, cell-based
MCF7 [9] = test: Induction of cell cycle arrest in human MCF7 cells assessed as accumulation of cells at G2/M phase at 10 uM incubated for 48 hrs by propidium iodide staining based flow cytometer analysis (reference value: 31.9 %); type: functional
Tubulin (Sus scrofa) [10] = target: T1, Tubulin (Sus scrofa) (UniProt P02554+P02550); test: Inhibition of porcine brain tubulin polymerization at 100 nM incubated for 60 mins in presence of GTP by spectrophotometric analysis; type: tissue-based
Tubulin (Sus scrofa) [11] = target: T1, Tubulin (Sus scrofa); test: Inhibition of porcine brain tubulin polymerization incubated for 60 mins in presence of GTP by spectrophotometric analysis; type: tissue-based
Tubulin (Sus scrofa) [12] = target: T1, Tubulin (Sus scrofa); test: Inhibition of porcine brain tubulin polymerization at 3 uM incubated for 60 mins in presence of GTP by spectrophotometric analysis; type: tissue-based

T1 sequence (P02550 whole entry, looked up): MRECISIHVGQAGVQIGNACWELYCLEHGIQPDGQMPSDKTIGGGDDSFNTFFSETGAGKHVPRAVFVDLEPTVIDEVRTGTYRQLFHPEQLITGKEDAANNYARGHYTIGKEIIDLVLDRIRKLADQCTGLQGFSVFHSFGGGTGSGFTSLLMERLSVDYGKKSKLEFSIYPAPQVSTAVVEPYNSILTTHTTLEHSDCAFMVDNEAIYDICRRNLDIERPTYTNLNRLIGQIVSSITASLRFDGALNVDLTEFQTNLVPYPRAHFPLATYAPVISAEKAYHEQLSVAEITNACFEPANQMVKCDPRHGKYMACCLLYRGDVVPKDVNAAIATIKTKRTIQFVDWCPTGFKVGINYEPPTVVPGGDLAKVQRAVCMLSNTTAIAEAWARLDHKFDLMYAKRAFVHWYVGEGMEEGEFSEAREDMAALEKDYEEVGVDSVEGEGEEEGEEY
T1 sequence (P02554 whole entry, looked up): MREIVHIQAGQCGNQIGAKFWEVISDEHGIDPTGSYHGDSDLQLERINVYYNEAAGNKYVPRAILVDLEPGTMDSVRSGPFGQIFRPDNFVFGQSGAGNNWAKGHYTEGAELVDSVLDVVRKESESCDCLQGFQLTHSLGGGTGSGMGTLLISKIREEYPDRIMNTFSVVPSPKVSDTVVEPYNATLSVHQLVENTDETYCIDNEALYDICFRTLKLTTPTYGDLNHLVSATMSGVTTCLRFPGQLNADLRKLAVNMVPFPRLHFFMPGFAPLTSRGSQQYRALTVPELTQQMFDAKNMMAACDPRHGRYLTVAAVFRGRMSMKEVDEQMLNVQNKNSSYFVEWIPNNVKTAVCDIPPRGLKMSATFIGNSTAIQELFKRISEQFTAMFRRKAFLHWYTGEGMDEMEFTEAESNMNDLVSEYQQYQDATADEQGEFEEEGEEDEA

| IC50 (MCF7 [5]) | IC50 (HT-29) | IC50 (HeLa) | SMILES | IC50 at 48 h [8] | also measured |
| --- | --- | --- | --- | --- | --- |
| 6.37 µM | 6.76 µM | 17.4 µM | COc1cc2c(-n3ccnc3)nc(-c3ccc(Br)cc3)nc2c(OC)c1OC | > 25 µM | Activity (Cell membrane): inactive; Activity (MCF7 [1]): 70.3%; Activity (MCF7 [2]): 9.4%; viability at 10 µM (MCF7 [3]): 11.8%; Activity (MCF7 [4]): 70.9%; Activity (MCF7 [6]): 8.5%; Activity (MCF7 [7]): 7.9%; Activity (MCF7 [9]): 17.7% |
| > 25 µM | > 25 µM | > 25 µM | COc1cc2c(-n3cnnc3)nc(-c3ccccc3)nc2c(OC)c1OC | > 25 µM |  |
| 13.7 µM | 11.8 µM | > 25 µM | COc1cc2c(-n3cnnc3)nc(-c3ccccc3C(F)(F)F)nc2c(OC)c1OC | > 25 µM |  |
| 12.2 µM | 15.2 µM | 14.7 µM | COc1cc2c(-n3ccnc3)nc(-c3ccccc3)nc2c(OC)c1OC | > 25 µM |  |
| > 25 µM | > 25 µM | > 25 µM | COc1cc2c(N3CCOCC3)nc(-c3ccccc3)nc2c(OC)c1OC | > 25 µM |  |
| > 25 µM | > 25 µM | > 25 µM | COc1cc(-c2nc(-n3nnc4ccccc43)c3cc(OC)c(OC)c(OC)c3n2)cc(OC)c1OC | > 25 µM |  |
| 8.59 µM | > 25 µM | > 25 µM | COc1cc2c(-n3cnnc3)nc(-c3ccc(Br)cc3)nc2c(OC)c1OC | > 25 µM |  |
| 18.1 µM | > 25 µM | > 25 µM | COc1ccc(-c2nc(-n3nnc4ccccc43)c3cc(OC)c(OC)c(OC)c3n2)cc1 | > 25 µM |  |
| 16.2 µM | 13 µM | > 25 µM | COc1cc2c(-n3nnc4ccccc43)nc(-c3ccc(Cl)cc3)nc2c(OC)c1OC | > 25 µM |  |
| 14.4 µM | 23.1 µM | > 25 µM | COc1cc2c(-n3nnc4ccccc43)nc(-c3ccccc3)nc2c(OC)c1OC | > 25 µM |  |
| 22.1 µM | > 25 µM | 18.7 µM | COc1ccc(-c2nc(-n3ccnc3)c3cc(OC)c(OC)c(OC)c3n2)cc1OC | > 25 µM |  |
| 15.2 µM | > 25 µM | 10.2 µM | COc1cc2c(-n3nnc4ccccc43)nc(-c3ccc(Br)cc3)nc2c(OC)c1OC | > 25 µM |  |
| 8.33 µM | > 25 µM | 13.3 µM | COc1cc2c(-n3cnnc3)nc(-c3ccc(Cl)cc3)nc2c(OC)c1OC | > 25 µM |  |
| 2.16 µM | 10.4 µM | 8.53 µM | COc1cc2c(-n3ccnc3)nc(-c3ccc(Cl)cc3)nc2c(OC)c1OC | > 25 µM | Activity (Cell membrane): Active; inhibition (Tubulin (Sus scrofa) [10]): Active; Activity (MCF7 [1]): 11.5%; Activity (MCF7 [2]): 19.9%; viability at 10 µM (MCF7 [3]): 34.9%; Activity (MCF7 [4]): 41.1%; Activity (MCF7 [6]): 4.9%; Activity (MCF7 [7]): 4.1%; inhibition (Tubulin (Sus scrofa) [11]): Dose-Dependent Effect; Activity (MCF7 [9]): 82.6% |
|  |  |  | CC(=O)O[C@H]1C(=O)[C@@]2(C)[C@H]([C@H](OC(=O)c3ccccc3)[C@]3(O)C[C@H](OC(=O)[C@H](O)[C@@H](NC(=O)c4ccccc4)c4ccccc4)C(C)=C1C3(C)C)[C@]1(OC(C)=O)CO[C@@H]1C[C@@H]2O |  | inhibition (Tubulin (Sus scrofa) [12]): Active |
| 23.4 µM | 5.45 µM | > 25 µM | COc1cc(-c2nc(-n3cnnc3)c3cc(OC)c(OC)c(OC)c3n2)cc(OC)c1OC | > 25 µM |  |
| > 25 µM | > 25 µM | 10.3 µM | COc1ccc(-c2nc(-n3cnnc3)c3cc(OC)c(OC)c(OC)c3n2)cc1 | > 25 µM |  |

| SMILES | IC50 (MCF7 [5]) | IC50 (HT-29) | IC50 (HeLa) | IC50 at 48 h [8] | also measured |
| --- | --- | --- | --- | --- | --- |
| COc1cc2c(c(OC)c1OC)-c1ccc(OC)c(=O)cc1[C@@H](NC(C)=O)CC2 [COLCHICINE] |  |  | 17.8 µM | > 25 µM | Activity (MCF7 [1]): 5.4%; Activity (MCF7 [2]): 15.5%; viability at 10 µM (MCF7 [3]): 27.7%; Activity (MCF7 [4]): 54%; Activity (MCF7 [6]): 4.1%; Activity (MCF7 [7]): 2.8%; Activity (MCF7 [9]): 89.4% |
